From publication PMC6979384, “Characterization of the plant homeodomain (PHD) reader family for their histone tail interactions” (Epigenetics & Chromatin, 2020)
Where no end group is shown, it is not given here. [ ]: non-standard residue; d: D form. Lys(Me3) = C[N+](C)(C)CCCC[C@H](N)C(=O)O

Tests used:
Experiment in all cases: Histone peptide microarray
Format in all cases: binding, human
MLL5 = conditions: sheet "Array Heatmap", total n = 4; for Array Heatmap value (peptide array signal): MLL5, each array performed twice
How it was run: (§1)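 GST-tagged PHD readers, 0.5 μM, probed on a microarray of 293 synthetic histone peptides carrying single or combinatorial PTMs (optimized Petell protocol). Signals are averaged over 4 replicates and expressed as relative binding.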

KDM5B (1) = conditions: sheet "Array Heatmap", total n = 4; for Array Heatmap value (peptide array signal): KDM5B (1), each array performed twice
How it was run: as §1

PHF8 = conditions: sheet "Array Heatmap", total n = 4; for Array Heatmap value (peptide array signal): PHF8, each array performed twice
How it was run: as §1

BPTF (PB) = conditions: sheet "Array Heatmap", total n = 4; for Array Heatmap value (peptide array signal): BPTF (PB), each array performed twice
How it was run: as §1

ING1 = conditions: sheet "Array Heatmap", total n = 4; for Array Heatmap value (peptide array signal): ING1, each array performed twice
How it was run: as §1

BAZ2B = conditions: sheet "Array Heatmap", total n = 4; for Array Heatmap value (peptide array signal): BAZ2B, each array performed twice
How it was run: as §1

RAG2 = conditions: sheet "Array Heatmap", total n = 4; for Array Heatmap value (peptide array signal): RAG2, each array performed twice
How it was run: as §1

KDM5A (1) = conditions: sheet "Array Heatmap", total n = 4; for Array Heatmap value (peptide array signal): KDM5A (1), each array performed twice
How it was run: as §1

KDM4C (TTP) = conditions: sheet "Array Heatmap", total n = 4; for Array Heatmap value (peptide array signal): KDM4C (TTP), each array performed twice
How it was run: as §1

KDM5A (3) = conditions: sheet "Array Heatmap", total n = 4; for Array Heatmap value (peptide array signal): KDM5A (3), each array performed twice
How it was run: as §1

DPF2 (PPC2W2) = conditions: sheet "Array Heatmap", total n = 4; for Array Heatmap value (peptide array signal): DPF2 (PPC2W2), each array performed twice
How it was run: as §1

MORC3 (CW) = conditions: sheet "Array Heatmap", total n = 4; for Array Heatmap value (peptide array signal): MORC3 (CW), each array performed twice
How it was run: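 A peptide microarray holding 293 synthetic histone peptides with individual or combinatorial modifications was probed with each GST-PHD protein at 0.5 μM. Values represent mean intensity (±SD) from four replicates.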

TRIM66 (PB) = conditions: sheet "Array Heatmap", total n = 4; for Array Heatmap value (peptide array signal): TRIM66 (PB), each array performed twice
How it was run: as §1

PHF21A = conditions: sheet "Array Heatmap", total n = 4; for Array Heatmap value (peptide array signal): PHF21A, each array performed twice
How it was run: as §1

DIDO1 = conditions: sheet "Array Heatmap", total n = 4; for Array Heatmap value (peptide array signal): DIDO1, each array performed twice
How it was run: as §1

PHF2 = conditions: sheet "Array Heatmap", total n = 4; for Array Heatmap value (peptide array signal): PHF2, each array performed twice
How it was run: as §1

KDM5B (3) = conditions: sheet "Array Heatmap", total n = 4; for Array Heatmap value (peptide array signal): KDM5B (3), each array performed twice
How it was run: as §1

CHD5 (PCC) = conditions: sheet "Array Heatmap", total n = 4; for Array Heatmap value (peptide array signal): CHD5 (PCC), each array performed twice
How it was run: as §1

TAF3 = conditions: sheet "Array Heatmap", total n = 4; for Array Heatmap value (peptide array signal): TAF3, each array performed twice
How it was run: as §1

ING5 = conditions: sheet "Array Heatmap", total n = 4; for Array Heatmap value (peptide array signal): ING5, each array performed twice
How it was run: as §1

PHRF1 (RP) = conditions: sheet "Array Heatmap", total n = 4; for Array Heatmap value (peptide array signal): PHRF1 (RP), each array performed twice
How it was run: as §1

SP140L = conditions: sheet "Array Heatmap", total n = 4; for Array Heatmap value (peptide array signal): SP140L, each array performed twice
How it was run: as §1

PHF23 = conditions: sheet "Array Heatmap", total n = 4; for Array Heatmap value (peptide array signal): PHF23, each array performed twice
How it was run: as §1

AIRE (PP) = conditions: sheet "Array Heatmap", total n = 4; for Array Heatmap value (peptide array signal): AIRE (PP), each array performed twice
How it was run: as §1

ING4 = conditions: sheet "Array Heatmap", total n = 4; for Array Heatmap value (peptide array signal): ING4, each array performed twice
How it was run: as §1

CHD5 (PPCC) = conditions: sheet "Array Heatmap", total n = 4; for Array Heatmap value (peptide array signal): CHD5 (PPCC), each array performed twice
How it was run: as §1

KDM7A = conditions: sheet "Array Heatmap", total n = 4; for Array Heatmap value (peptide array signal): KDM7A, each array performed twice
How it was run: as §1

ING3 = conditions: sheet "Array Heatmap", total n = 4; for Array Heatmap value (peptide array signal): ING3, each array performed twice
How it was run: as §1

ING2 = conditions: sheet "Array Heatmap", total n = 4; for Array Heatmap value (peptide array signal): ING2, each array performed twice
How it was run: as §1

CHD4 (PPCC) = conditions: sheet "Array Heatmap", total n = 4; for Array Heatmap value (peptide array signal): CHD4 (PPCC), each array performed twice
How it was run: as §1

PHF13 = conditions: sheet "Array Heatmap", total n = 4; for Array Heatmap value (peptide array signal): PHF13, each array performed twice
How it was run: as §1

[1] = GST-tagged reader, histone peptide array

For H3K4me2 + T6p: H3 1-20, the “Array Heatmap signal, MLL5” value (MLL5; [1]) was 0.5839, the “Array Heatmap signal, KDM5B (1)” value (KDM5B (1); [1]) was 0.6237 and the “Array Heatmap signal, PHF8” value (PHF8; [1]) was 0.3931. The “Array Heatmap signal, BPTF (PB)” value (BPTF (PB); [1]) was 0.3354, the “Array Heatmap signal, ING1” value (ING1; [1]) was 0.5538 and the “Array Heatmap signal, BAZ2B” value (BAZ2B; [1]) was 0.3939. For the same substance, the “Array Heatmap signal, RAG2” value (RAG2; [1]) was 0.2424, the “Array Heatmap signal, KDM5A (1)” value (KDM5A (1); [1]) was 0.3957 and the “Array Heatmap signal, KDM4C (TTP)” value (KDM4C (TTP); [1]) was 0.4526. The “Array Heatmap signal, KDM5A (3)” value (KDM5A (3); [1]) was 0.5519, the “Array Heatmap signal, DPF2 (PPC2W2)” value (DPF2 (PPC2W2); [1]) was 0.6113 and the “Array Heatmap signal, MORC3 (CW)” value (MORC3 (CW); [1]) was 0.4606. For the same substance, the “Array Heatmap signal, TRIM66 (PB)” value (TRIM66 (PB); [1]) was 0.586, the “Array Heatmap signal, PHF21A” value (PHF21A; [1]) was 0.4239 and the “Array Heatmap signal, DIDO1” value (DIDO1; [1]) was 0.7205. The “Array Heatmap signal, PHF2” value (PHF2; [1]) was 0.5776, the “Array Heatmap signal, KDM5B (3)” value (KDM5B (3); [1]) was 0.4514 and the “Array Heatmap signal, CHD5 (PCC)” value (CHD5 (PCC); [1]) was 0.7961. For the same substance, the “Array Heatmap signal, TAF3” value (TAF3; [1]) was 0.2971, the “Array Heatmap signal, ING5” value (ING5; [1]) was 0.3133 and the “Array Heatmap signal, PHRF1 (RP)” value (PHRF1 (RP); [1]) was 0.4464. For the same substance, the “Array Heatmap signal, SP140L” value (SP140L; [1]) was 0.3405, the “Array Heatmap signal, PHF23” value (PHF23; [1]) was 0.5061 and the “Array Heatmap signal, AIRE (PP)” value (AIRE (PP); [1]) was 0.3956. For the same substance, the “Array Heatmap signal, ING4” value (ING4; [1]) was 0.4083, the “Array Heatmap signal, CHD5 (PPCC)” value (CHD5 (PPCC); [1]) was 0.4881 and the “Array Heatmap signal, KDM7A” value (KDM7A; [1]) was 0.3717. For the same substance, the “Array Heatmap signal, ING3” value (ING3; [1]) was 0.4685, the “Array Heatmap signal, ING2” value (ING2; [1]) was 0.6785 and the “Array Heatmap signal, CHD4 (PPCC)” value (CHD4 (PPCC); [1]) was 0.5639. The “Array Heatmap signal, PHF13” value (PHF13; [1]) was 0.5699.
For “H3K4me3 (1-7): H3 1-7 (ART[Lys(Me3)]QTA; UniProt P68431 2-8, looked up, fragment)”, the “Array Heatmap value (peptide array signal)” value (“Array Heatmap value” below) (MLL5) was 0.7048, the “Array Heatmap value” value (KDM5B (1)) was 0.7094 and the “Array Heatmap value” value (PHF8) was 0.544. The “Array Heatmap value” value (BPTF (PB)) was 0.3708, the “Array Heatmap value” value (ING1) was 0.5185 and the “Array Heatmap value” value (BAZ2B) was 0.5069. The “Array Heatmap value” value (RAG2) was 0.3345, the “Array Heatmap value” value (KDM5A (1)) was 0.4902 and the “Array Heatmap value” value (KDM4C (TTP)) was 0.5656. The “Array Heatmap value” value (KDM5A (3)) was 0.5067, the “Array Heatmap value” value (DPF2 (PPC2W2)) was 0.6324 and the “Array Heatmap value” value (MORC3 (CW)) was 0.489. The “Array Heatmap value” value (TRIM66 (PB)) was 0.5289, the “Array Heatmap value” value (PHF21A) was 0.4644 and the “Array Heatmap value” value (DIDO1) was 0.6423. For the same substance, the “Array Heatmap value” value (PHF2) was 0.4609, the “Array Heatmap value” value (KDM5B (3)) was 0.5187 and the “Array Heatmap value” value (CHD5 (PCC)) was 0.8146. The “Array Heatmap value” value (TAF3) was 0.3574, the “Array Heatmap value” value (ING5) was 0.4084 and the “Array Heatmap value” value (PHRF1 (RP)) was 0.3886. For the same substance, the “Array Heatmap value” value (SP140L) was 0.3724, the “Array Heatmap value” value (PHF23) was 0.5369 and the “Array Heatmap value” value (AIRE (PP)) was 0.5351. The “Array Heatmap value” value (ING4) was 0.4911, the “Array Heatmap value” value (CHD5 (PPCC)) was 0.5698 and the “Array Heatmap value” value (KDM7A) was 0.7221. For the same substance, the “Array Heatmap value” value (ING3) was 0.472, the “Array Heatmap value” value (ING2) was 0.6464 and the “Array Heatmap value” value (CHD4 (PPCC)) was 0.5649. The “Array Heatmap value” value (PHF13) was 0.6272.
H3K4me3 (1-11): H3 1-11 was tested, and the “Array Heatmap value” value (MLL5) was 0.6217, the “Array Heatmap value” value (KDM5B (1)) was 0.6584 and the “Array Heatmap value” value (PHF8) was 0.4899. For the same substance, the “Array Heatmap value” value (BPTF (PB)) was 0.3697, the “Array Heatmap value” value (ING1) was 0.5841 and the “Array Heatmap value” value (BAZ2B) was 0.4805. For the same substance, the “Array Heatmap value” value (RAG2) was 0.3044, the “Array Heatmap value” value (KDM5A (1)) was 0.5087 and the “Array Heatmap value” value (KDM4C (TTP)) was 0.5306. The “Array Heatmap value” value (KDM5A (3)) was 0.6017, the “Array Heatmap value” value (DPF2 (PPC2W2)) was 0.6949 and the “Array Heatmap value” value (MORC3 (CW)) was 0.5155. The “Array Heatmap value” value (TRIM66 (PB)) was 0.5622, the “Array Heatmap value” value (PHF21A) was 0.5172 and the “Array Heatmap value” value (DIDO1) was 0.7285. The “Array Heatmap value” value (PHF2) was 0.5693, the “Array Heatmap value” value (KDM5B (3)) was 0.5281 and the “Array Heatmap value” value (CHD5 (PCC)) was 0.8101. For the same substance, the “Array Heatmap value” value (TAF3) was 0.3193, the “Array Heatmap value” value (ING5) was 0.3839 and the “Array Heatmap value” value (PHRF1 (RP)) was 0.4768. For the same substance, the “Array Heatmap value” value (SP140L) was 0.3833, the “Array Heatmap value” value (PHF23) was 0.5829 and the “Array Heatmap value” value (AIRE (PP)) was 0.5119. For the same substance, the “Array Heatmap value” value (ING4) was 0.465, the “Array Heatmap value” value (CHD5 (PPCC)) was 0.5701 and the “Array Heatmap value” value (KDM7A) was 0.4006. The “Array Heatmap value” value (ING3) was 0.5106, the “Array Heatmap value” value (ING2) was 0.6411 and the “Array Heatmap value” value (CHD4 (PPCC)) was 0.5943. For the same substance, the “Array Heatmap value” value (PHF13) was 0.6221.
